Our source for the glass transition temperature values is the PolyMetriX glass transition set.

Compound `*=Nc1ccc(/N=C(/C=C/C(=*)c2ccccc2)c2ccccc2)cc1` (repeat unit) yielded a glass transition temperature of 157.00 °C.

In turn, `*=Nc1ccc(Cc2ccc(NC(=*)CC)cc2)cc1` (repeat unit) had a glass transition temperature of 130.00 °C. For `*C(=O)c1ccc2c(c1)/C(=N\c1ccc(Oc3ccc(C(c4ccc(Oc5ccc(/N=C6/OC(=O)c7ccc(*)cc76)cc5)cc4)(C(F)(F)F)C(F)(F)F)cc3)cc1)OC2=O` (repeat unit) the value was 248.00 °C; for `*C(=O)c1ccc2c(c1)/C(=N\c1cccc(Oc3cccc(Oc4cccc(/N=C5/OC(=O)c6ccc(*)cc65)c4)c3)c1)OC2=O` (repeat unit), 190.00 °C. For `*CC(*)(C)C(=O)OCc1c(F)cccc1F` (repeat unit) the value was 82.00 °C.

Consider `*CC(*)(C)C(=O)OCc1cc(Cl)cc(Cl)c1` (repeat unit), for which the glass transition temperature amounted to 30.0 °C.

On to `*CC(*)(C)C(=O)OCc1ccc(OCCOCC)c(OCCOCC)c1` (repeat unit), for which the glass transition temperature is -2.00 °C.

The compound `*CC(*)(C)C(=O)OCc1ccc2c(c1)c1ccccc1n2CCCCCCCC` (repeat unit) came in with a glass transition temperature of 45.00 °C. `*CC(*)(C)C(=O)OCc1ccc2c(c1)c1ccccc1n2CCCCCCCCCC` (repeat unit) had a glass transition temperature of 29.00 °C.

Compound `*CC(*)(C)C(=O)OCc1ccccc1Cl` (repeat unit) yielded a glass transition temperature of 54.10 °C. `*CC(*)(C)C(=O)O[Si](C)(C)C` (repeat unit) returned a glass transition temperature of 97.50 °C. As to `*CC(*)(C)C(=O)Oc1c(C(C)C)cccc1C(C)C` (repeat unit), the glass transition temperature amounted to 198.00 °C. `*CC(*)(C)C(=O)Oc1cc(C)ccc1C` (repeat unit) displayed a glass transition temperature of 111.00 °C. Turning to `*CC(*)(C)C(=O)Oc1ccc(/N=N/c2ccc(OCCCCCCCCCCCOC(=O)c3ccc4c(c3)OCCOCCOCCOCCO4)cc2)cc1` (repeat unit), the glass transition temperature turned out to be 19.00 °C. The compound `*CC(*)(C)C(=O)Oc1ccc(C(=O)/C=C/c2ccc(Cl)cc2)cc1` (repeat unit) returned a glass transition temperature of 127.00 °C.

Compound `*CC(*)(C)C(=O)Oc1ccc(C(=O)Oc2ccc(C)cc2)cc1` (repeat unit) displayed a glass transition temperature of 98.00 °C.

On to `*CC(*)(C)C(=O)Oc1ccc(C(=O)Oc2ccc(OC)cc2)cc1` (repeat unit), for which the glass transition temperature stood at 77.00 °C. As for `*CC(*)(C)C(=O)Oc1ccc(C(=O)Oc2ccccc2)cc1` (repeat unit), the figure is 99.00 °C; as for `*CC(*)(C)C(=O)Oc1ccc(C(C)(C)C)cc1` (repeat unit), 91.00 °C.

In turn, `*CC(*)(C)C(=O)Oc1ccc(C)cc1C` (repeat unit) came in with a glass transition temperature of 109.00 °C. Compound `*CC(*)(C)C(=O)Oc1ccc(OCc2ccccc2)cc1` (repeat unit) showed a glass transition temperature of 95.30 °C.

For the compound `*CC(*)(C)C(=O)Oc1cccc(C)c1C` (repeat unit), the glass transition temperature came to 120.00 °C. In turn, `*CC(*)(C)C(=O)Oc1ccccc1` (repeat unit) yielded a glass transition temperature of 110.00 °C. For `*CC(*)(C)C(N)=O` (repeat unit) the value was 88.70 °C; for `*CC(*)(C)CCC` (repeat unit), 27.00 °C. For `*CC(*)(C)c1ccc(C(O)C(F)(F)F)cc1` (repeat unit) the value was 199.00 °C; for `*CC(*)(C)c1ccc(C)cc1` (repeat unit), 176.00 °C. `*CC(*)(C)c1ccc2ccccc2n1` (repeat unit) showed a glass transition temperature of 193.00 °C. Compound `*CC(*)(C)c1nc(N(CCOCCOCCOC)CCOCCOCCOC)nc(N(CCOCCOCCOC)c2ccccc2)n1` (repeat unit) displayed a glass transition temperature of -75.00 °C. On to `*CC(*)(CC(=O)OC)C(=O)O` (repeat unit), for which the glass transition temperature is 159.00 °C. On to `*CC(*)(CC(=O)OC1CCCCC1)C(=O)OC1CCCCC1` (repeat unit), for which the glass transition temperature came out at 142.00 °C.

In turn, `*CC(*)(CC(=O)OC1CCCCCC1)C(=O)OC1CCCCCC1` (repeat unit) registered a glass transition temperature of 105.00 °C. As for `*CC(*)(CC(=O)OCC)C(=O)OCC` (repeat unit), the figure is 65.50 °C; as for `*CC(*)(CC(=O)OCCCCC)C(=O)OCCCCC` (repeat unit), 2.00 °C; as for `*CC(*)(CC(=O)OCCCCCCCC)C(=O)OCCCCCCCC` (repeat unit), -19.00 °C. As for `*CC(*)(CC(=O)OCCCCl)C(=O)OCCCCl` (repeat unit), the figure is 47.00 °C.

As for `*CC(*)(CC(=O)OCCOCCOCCOCCOCCOCCOCCOC)C(=O)OCCOCCOCCOCCOCCOCCOCCOC` (repeat unit), the glass transition temperature is -40.50 °C. As for `*CC(*)(CC(=O)Oc1ccc(OCC)cc1)C(=O)Oc1ccc(OCC)cc1` (repeat unit), the figure is 110.50 °C; as for `*CC(*)(CC(=O)Oc1ccc(OCCCCC)cc1)C(=O)Oc1ccc(OCCCCC)cc1` (repeat unit), 73.50 °C; as for `*CC(*)(CC(=O)Oc1ccc(OCCCCCCC)cc1)C(=O)Oc1ccc(OCCCCCCC)cc1` (repeat unit), 111.00 °C.

`*CC(*)(CC(=O)Oc1ccccc1)C(=O)Oc1ccccc1` (repeat unit) yielded a glass transition temperature of 132.00 °C. As for `*CC(*)(CCC(C)C(=O)OC)C(=O)OC` (repeat unit), the figure is 34.00 °C; as for `*CC(*)(CCCCC)C(=O)OC` (repeat unit), 53.00 °C. For `*CC(*)(Cl)C(=O)OC` (repeat unit) the value was 125.00 °C; for `*CC(*)(Cl)C(=O)OCCOc1ccc(C(=O)Oc2ccc(OCCCC)cc2)cc1` (repeat unit), 153.00 °C. In the case of `*CC(*)(F)C(=O)OC` (repeat unit), the glass transition temperature was found to be 142.00 °C. For `*CC(*)(F)C(=O)OCC(F)(F)C(F)(F)C(F)(F)C(F)F` (repeat unit), the glass transition temperature is 60.00 °C.

`*CC(*)(F)C(=O)OCC(F)(F)C(F)F` (repeat unit) yielded a glass transition temperature of 90.50 °C. With `*CC(*)(F)C(=O)OCCC(F)(F)C(F)(F)C(F)(F)C(F)(F)C(F)(F)C(F)(F)C(F)(F)C(F)(F)C(F)(F)C(F)(F)F` (repeat unit), the glass transition temperature was found to be 53.00 °C. For `*CC(*)C(=O)N(C)C` (repeat unit) the value was 114.00 °C; for `*CC(*)C(=O)N1CCCCC1` (repeat unit), 108.00 °C; for `*CC(*)C(=O)N1CCOCC1` (repeat unit), 150.00 °C. In the case of `*CC(*)C(=O)NC(C)(C)CS(=O)(=O)O` (repeat unit), the glass transition temperature worked out at 85.00 °C. `*CC(*)C(=O)Nc1ccc(C(=O)/C=C/c2ccc(Br)cc2)cc1` (repeat unit): the glass transition temperature came to 64.00 °C. Consider `*CC(*)C(=O)Nc1ccc2c(c1)C(=O)c1ccccc1C2=O` (repeat unit), for which the glass transition temperature stood at 128.00 °C. As to `*CC(*)C(=O)OC(C(F)(F)F)C(F)(F)F` (repeat unit), the glass transition temperature turned out to be 42.30 °C.

`*CC(*)C(=O)OC(Cl)C(Cl)(Cl)Cl` (repeat unit): the glass transition temperature was 70.50 °C. For `*CC(*)C(=O)OC(OCC)C(F)(F)F` (repeat unit) the value was 5.00 °C; for `*CC(*)C(=O)OC12CC3CC(C)(CC(C)(C3)C1)C2` (repeat unit), 104.00 °C. As for `*CC(*)C(=O)OCC(C)CC` (repeat unit), the figure is -32.00 °C.

Regarding `*CC(*)C(=O)OCC(C)O` (repeat unit), the glass transition temperature is -7.00 °C.

`*CC(*)C(=O)OCC(F)(F)C(F)(F)C(F)(F)C(F)(F)F` (repeat unit) had a glass transition temperature of -37.00 °C.

The compound `*CC(*)C(=O)OCC(F)(F)C(F)(F)C(F)(F)C(F)F` (repeat unit) had a glass transition temperature of -35.00 °C. With `*CC(*)C(=O)OCC(F)(F)C(F)(F)OC(F)(F)C(F)(F)C(F)(F)C(F)(F)F` (repeat unit), the glass transition temperature is -68.00 °C. `*CC(*)C(=O)OCC(F)(F)C(F)(F)OC(F)(F)F` (repeat unit): the glass transition temperature was -55.00 °C. For `*CC(*)C(=O)OCC(F)(F)C(F)C(F)(F)F` (repeat unit) the value was -22.00 °C; for `*CC(*)C(=O)OCC1(CC)COCOC1` (repeat unit), 42.00 °C; for `*CC(*)C(=O)OCCC(F)(F)C(F)(F)C(F)(F)C(F)(F)C(F)(F)C(F)(F)F` (repeat unit), -12.00 °C. `*CC(*)C(=O)OCCCCC` (repeat unit): the glass transition temperature was -57.00 °C.

`*CC(*)C(=O)OCCCCCCCCCCCCOC(=O)c1ccc(OC(=O)c2ccc(C#N)cc2)cc1` (repeat unit) returned a glass transition temperature of 15.00 °C.

In turn, `*CC(*)C(=O)OCCCCCCCCCCCCOc1ccc(C(=O)Oc2ccc(-c3cccc(OC(=O)c4ccc(OC(=O)c5ccc(OCCCCCCCCCCCC)cc5)cc4)c3)cc2)cc1` (repeat unit) registered a glass transition temperature of 67.00 °C. `*CC(*)C(=O)OCCCCCCCCCCCn1c2ccccc2c2ccccc21` (repeat unit) registered a glass transition temperature of 15.00 °C.

With `*Oc1ccc(/N=C(\C)c2ccc(Oc3ccc(C(c4ccccc4)(c4ccccc4)c4ccc(Oc5ccc(/C(C)=N/c6ccc(*)cc6)cc5)cc4)cc3)cc2)cc1` (repeat unit), the glass transition temperature was determined as 150.00 °C. For `*Oc1ccc(/N=C(\c2ccccc2)c2ccc(Oc3ccc(C(c4ccccc4)(c4ccccc4)c4ccc(Oc5ccc(/C(=N/c6ccc(*)cc6)c6ccccc6)cc5)cc4)cc3)cc2)cc1` (repeat unit) the value was 177.00 °C; for `*Oc1ccc2ccc(Oc3ccc(/C(=N/c4ccc(Oc5ccc(/N=C(\c6ccccc6)c6ccc(*)cc6)cc5)cc4)c4ccccc4)cc3)cc2c1` (repeat unit), 165.00 °C.
